Results reported in patent US4036961A (priority 1972, dated 1977).
pIC50: −log10 of the molar value. Structures can show the parent of a compound that is named as a salt.

How the values were obtained:
Cl. perfringens = conditions: disclosed in British Pat. No. 1303171 and Application No. 36289/70; cited from earlier work
Derm. dermatonomous = conditions: disclosed in British Pat. No. 1303171 and Application No. 36289/70; cited from earlier work
[1] = target: hydroxymethyldihydropteridine pyrophosphokinase (HMPPS) (Escherichia coli, UniProt P26281); assay: Inhibition of the enzymes of dihydropteroate biosynthesis (ATP-γ-P32 transfer assay for HMPPS; dihydropteroate-C14 formation for synthetase); type: biochemical; conditions: enzymes from E. coli extract; tests (a) HMPPS and (b) synthetase of Example 5; read-out: concentration giving 50% inhibition
Sequence of hydroxymethyldihydropteridine pyrophosphokinase (HMPPS) (P26281 whole entry): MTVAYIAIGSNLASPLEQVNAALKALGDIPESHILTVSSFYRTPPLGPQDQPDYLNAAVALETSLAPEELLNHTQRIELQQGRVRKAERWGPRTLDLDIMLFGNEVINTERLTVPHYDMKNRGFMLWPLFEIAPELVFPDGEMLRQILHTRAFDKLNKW
Protocol: The inhibiting activity against HMPPS of a selected compound of formula (I) can, for instance, be tested by monitoring the transfer of the terminal phosphate of adenosine triphosphate ATP-γ-P^32 to `dihydropteridine`. […] Such inhibition may, for instance, be easily and simply carried out by incubating an extract of E. coli with pAB-7-C^14, ATP, Mg and `dihydropteridine`. The formation of the dihydropteroate-C^14 can be quantitatively assayed after separating the unreated pAB substrate, for instance by chromatography. […] Preferably the value is 25 μM or less, such as in the range between […]. Generally a value below 7μM is desirable. […]
phosphate of ATP-γ-P^32 to Pt could be monitored and correlated […]
Tubes 1 to 9 containing the amounts of components shown in the Table, were filled up to 200μl with distilled water, incubated for 60 minutes at 37° C and then chilled on ice. […] The charcoal and the filter were then radioactively counted.
The radioactive count from the contents of tubes 2 and 3 was taken as the maximum count, since these tubes contained no test compound and thus gave 0% enzyme inhibition. The percentage inhibition produced by the contents of the remaining tubes could then be calculated by relating their radioactive count to the maximum, as determined above. […]

In the case of `CC1=Nc2c(O)nc(N)nc2NC1(C)C` [2-amino-4-hydroxy-6-methyl-7,7-dimethyl-7,8-dihydropteridine], the bacteriostatic activity (Cl. perfringens) is listed as “particularly effective” and the bacteriostatic activity (Derm. dermatonomous) is listed as “particularly effective”.
In the case of `CC1(C)Nc2nc(N)nc(O)c2N=C1CO` [2-amino-4-hydroxy-6-hydroxymethyl-7,7-dimethyl-7,8-dihydropteridine], the bacteriostatic activity (Cl. perfringens) is given as “particularly effective” and the bacteriostatic activity (Derm. dermatonomous) is given as “particularly effective”.
For `CC1(C)Nc2nc(N)nc(O)c2N=C1CBr` [2-Amino-4-hydroxy-6-bromomethyl-7,7-dimethyl-7,8-dihydropteridine hydrobromide], the pIC50 [1] was 5.30.
`CC1(C)Nc2nc(N)nc(O)c2N=C1C(Br)Br` [the 6-dibromomethyl analogue, 2-Amino-4-hydroxy-6-dibromomethyl-7,7-dimethyl-7,8-dihydropteridine hydrobromide] showed a pIC50 [1] of 4.60.
